Experimental data: ChEMBL document CHEMBL3044861, “Synthesis and Herbicidal Activity of New 2-(1-Carbamoyl-1, 2, 4-triazol-3-ylsulfonyl) alkanoates” (J Pestic Sci, 2002)

What was measured:
Oryza sativa [1] = experiment: Toxicity in Oryza sativa (rice) assessed as injury at 50 g/ha pre-emergence application under paddy conditions by crop safety assay; type: organism-based; conditions: in vivo, other
Oryza sativa [2] = experiment: Toxicity in Oryza sativa (rice) assessed as injury at 25 g/ha pre-emergence application under paddy conditions by crop safety assay; type: organism-based; conditions: in vivo, other
Pontederia vaginalis [3] = experiment: Herbicidal activity against Monochoria vaginalis assessed as killing at 25 g/ha pre-emergence application under paddy conditions; type: functional
[4] = Herbicidal activity against broadleaf weed assessed as killing at 50 g/ha pre-emergence application under paddy conditions; type: functional
Pontederia vaginalis [5] = experiment: Herbicidal activity against Monochoria vaginalis assessed as killing at 50 g/ha pre-emergence application under paddy conditions; type: functional
Zea mays = experiment: Herbicidal activity against Zea mays (maize)assessed as killing at 500 g/ha pre-emergence application upland paddy conditions measured after 14 days; type: functional
Echinochloa oryzicola [6] = experiment: Herbicidal activity against Echinochloa oryzicola assessed as killing at 25 g/ha pre-emergence application under paddy conditions; type: functional
Digitaria ciliaris = experiment: Herbicidal activity against Digitaria ciliaris assessed as killing at 500 g/ha pre-emergence application upland paddy conditions measured after 14 days; type: functional
[7] = test system: Schoenoplectiella juncoides; experiment: Herbicidal activity against Schoenoplectiella juncoides assessed as killing at 50 g/ha pre-emergence application under paddy conditions; type: functional
[8] = test system: Schoenoplectiella juncoides; experiment: Herbicidal activity against Schoenoplectiella juncoides assessed as killing at 25 g/ha pre-emergence application under paddy conditions; type: functional
Echinochloa crus-galli = experiment: Herbicidal activity against Echinochloa crus-galli (barnyard grass) assessed as killing at 500 g/ha pre-emergence application upland paddy conditions measured after 14 days; type: functional
Chenopodium album = experiment: Herbicidal activity against Chenopodium album assessed as killing at 500 g/ha pre-emergence application upland paddy conditions measured after 14 days; type: functional
Echinochloa oryzicola [9] = experiment: Herbicidal activity against Echinochloa oryzicola assessed as killing at 50 g/ha pre-emergence application under paddy conditions; type: functional
[10] = Herbicidal activity against broadleaf weed assessed as killing at 25 g/ha pre-emergence application under paddy conditions; type: functional
Echinochloa oryzicola [11] = experiment: Herbicidal activity against Echinochloa oryzicola assessed as killing pre-emergence application under paddy conditions; type: functional
[12] = Octanol-water partition coefficient, log K of the compound; type: physicochemical; conditions: read-out: log K
[13] = test system: Schoenoplectiella juncoides; experiment: Herbicidal activity against Schoenoplectiella juncoides assessed as killing at 10 g/ha pre-emergence application under paddy conditions; type: functional
[14] = Herbicidal activity against broadleaf weed assessed as killing at 10 g/ha pre-emergence application under paddy conditions; type: functional
Pontederia vaginalis [15] = experiment: Herbicidal activity against Monochoria vaginalis assessed as killing at 10 g/ha pre-emergence application under paddy conditions; type: functional
Echinochloa oryzicola [16] = experiment: Herbicidal activity against Echinochloa oryzicola assessed as killing at 10 g/ha pre-emergence application under paddy conditions; type: functional
Oryza sativa [17] = experiment: Toxicity in Oryza sativa (rice) assessed as injury at 10 g/ha pre-emergence application under paddy conditions by crop safety assay; type: organism-based; conditions: in vivo, other

SMILES | Activity (Oryza sativa [1]) [%] | Activity (Oryza sativa [2]) [%] | Activity (Pontederia vaginalis [3]) [%] | Activity [4] [%] | Activity (Pontederia vaginalis [5]) [%] | Activity (Echinochloa oryzicola [6]) [%] | Activity [7] [%] | Activity [8] [%] | Activity (Echinochloa oryzicola [9]) [%] | Activity [10] [%] | log(1/ED80) (Echinochloa oryzicola [11]) | logP [12] | also measured
CCN(CC)C(=O)n1cnc(S(=O)(=O)c2c(C)cc(C)cc2C)n1 [CAFENSTROLE] | 10 | 10 | 100 | 100 | 100 | 100 | 100 | 90 | 100 | 90 |  |  | Activity (Zea mays): 60%; Activity (Digitaria ciliaris): 90%; Activity (Echinochloa crus-galli): 90%; Activity (Chenopodium album): 100%
CCCOC(=O)C(CC(C)C)S(=O)(=O)c1ncn(C(=O)N(CC)CC)n1 (configuration not stated) | 10 | 10 | 60 | 100 | 100 | 90 | 100 | 70 | 100 | 60 | 1.41 | 0.9 | 
CCCCCOC(=O)C(CC(C)C)S(=O)(=O)c1ncn(C(=O)N(CC)CC)n1 (configuration not stated) | 10 | 10 | 10 | 60 | 10 | 40 | 40 | 10 | 40 | 30 | 0.62 | 1.18 | 
CCN(CC)C(=O)n1cnc(S(=O)(=O)C(CC(C)C)C(=O)OC(C)(C)C)n1 (configuration not stated) | 10 | 10 | 10 | 10 | 10 | 30 | 10 | 10 | 90 | 10 | 1 | 0.99 | 
CCCCOC(=O)C(CC(C)C)S(=O)(=O)c1ncn(C(=O)N(CC)CC)n1 (configuration not stated) | 10 | 10 | 90 | 80 | 100 | 100 | 100 | 100 | 100 | 60 | 1.3 | 1.04 | 
CCN(CC)C(=O)n1cnc(S(=O)(=O)C(CC(C)C)C(=O)OC)n1 (configuration not stated) | 10 | 10 | 50 | 100 | 100 | 100 | 100 | 80 | 100 | 70 | 1.26 | 0.68 | Activity (Zea mays): 40%; Activity (Digitaria ciliaris): 100%; Activity (Echinochloa crus-galli): 100%; Activity (Chenopodium album): 100%
CCOC(=O)C(CC(C)C)S(=O)(=O)c1ncn(C(=O)N(CC)CC)n1 (configuration not stated) | 10 | 10 | 40 | 60 | 90 | 90 | 90 | 30 | 100 | 50 | 1.27 | 0.78 | 
CCN(CC)C(=O)n1cnc(S(=O)(=O)[C@H](CC(C)C)C(=O)OC(C)C)n1 |  | 10 | 40 |  |  | 90 |  | 40 |  | 60 |  |  | Activity [13]: 10%; Activity [14]: 40%; Activity (Pontederia vaginalis [15]): 10%; Activity (Echinochloa oryzicola [16]): 50%; Activity (Oryza sativa [17]): 10%
CCN(CC)C(=O)n1cnc(S(=O)(=O)C(CC(C)C)C(=O)OC(C)C)n1 (configuration not stated) | 10 | 10 | 40 | 100 | 100 | 90 | 100 | 60 | 100 | 90 | 1.41 | 0.89 | Activity [13]: 30%; Activity [14]: 40%; Activity (Pontederia vaginalis [15]): 10%; Activity (Echinochloa oryzicola [16]): 40%; Activity (Oryza sativa [17]): 10%
